Here are results for four compounds from ChEMBL document CHEMBL5528033, “Peptide-Drug Conjugates: An Emerging Direction for the Next Generation of Peptide Therapeutics” (J Med Chem, 2024).

Starred links: 1 amine or outer side, 2 acyl side, 3 side chain; linkers in the order of their positions; H or OH if unused. Positions of bridges follow the written chain, without caps; N, C: chain ends. Non-standard residues stand in square brackets, D forms with d. Residues, ends and D or L forms follow the SMILES beside them. *: point of attachment. DAMPA = CN(Cc1cnc2nc(N)nc(N)c2n1)c1ccc(C(=O)*)cc1; γGlu = O=C(O)[C@H](CCC(=O)[*:2])N[*:1]; Pen = CC(C)(S)[C@H](N)C(=O)O

Data set [1] has as its target Kappa-type opioid receptor (Mus musculus, UniProt P33534). Nature of the data set: Displacement of [3H]DPN from mouse KOR stably expressed in HEK293T cell membrane assessed as inhibition constant by radioligand binding assay. The class given is cell membranes. On the technique in general: Displacement assays read how much labelled ligand stays bound in the presence of the test substance.

Data set [2] in a line: Binding affinity to Dengue virus NS2B-NS3 protease assessed as inhibition constant.
Data set [3] in a line: Stability in rat plasma assessed as half life measured upto 120 mins. The class given is ADME, cell-free.
A short description of data set [4]: Stability of the compound assessed as half life at pH 6. Type of data set: physicochemical. The note with it: buffer.
Data set [5] in a line: Stability in rat heart assessed as half life measured upto 120 mins. Type of data set: ADME, tissue-based.

Chain of Kappa-type opioid receptor (P33534 whole entry): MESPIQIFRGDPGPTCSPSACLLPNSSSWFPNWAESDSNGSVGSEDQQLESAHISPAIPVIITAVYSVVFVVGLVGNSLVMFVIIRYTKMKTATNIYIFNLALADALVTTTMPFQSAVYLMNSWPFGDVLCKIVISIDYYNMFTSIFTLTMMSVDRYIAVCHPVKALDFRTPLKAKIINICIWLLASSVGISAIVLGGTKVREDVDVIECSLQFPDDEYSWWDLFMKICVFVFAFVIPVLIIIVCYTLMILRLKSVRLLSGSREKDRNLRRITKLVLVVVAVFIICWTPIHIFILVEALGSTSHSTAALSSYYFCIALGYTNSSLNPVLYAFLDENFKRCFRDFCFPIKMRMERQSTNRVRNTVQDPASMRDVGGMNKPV

Turning to `C[C@H](O)[C@@H]1NC(=O)[C@H](Cc2ccc(O)cc2)NC(=O)[C@@H](C)NC(=O)[C@@H](Cc2ccc(O)cc2)NC(=O)CSC[C@@H](C(=O)N[C@@H](C(=O)N[C@H](Cc2ccccc2)C(=O)N[C@@H]2CCC3C4Cc5ccc(O)c6c5C3(CCN4C)[C@H]2O6)[C@@H](C)O)NC(=O)[C@H]([C@H](C)O)NC1=O` (stereo partly specified), in data set [1], the Ki was found to be 72 nM.

On to `CCCC[C@@H](NC(=O)[C@H](CCCCN)NC(=O)[C@H](CCCNC(=N)N)NC(=O)c1ccc(/C=C(\C#N)C(=O)NC2CC2)cc1)C(N)=O`, for which the Ki in data set [2] came out at 4900 nM.

In the case of `C=CCN1CCC23c4c5ccc(O)c4O[C@H]2[C@H](NC(=O)[C@@H](Cc2ccccc2)NC(=O)[C@H](NC(=O)[C@@H]2CSCC(=O)N[C@H](Cc4ccc(O)cc4)C(=O)N[C@H](C)C(=O)N[C@@H](Cc4ccc(O)cc4)C(=O)N[C@@H]([C@H](C)O)C(=O)N[C@@H]([C@H](C)O)C(=O)N2)[C@@H](C)O)CCC3C1C5` (stereo partly specified), the Ki in data set [1] stood at 3.9 nM.

Take `CC(C)C[C@@H]1NC(=O)[C@H](C(C)C)NC(=O)[C@H](CO)NC(=O)CNC(=O)CNC(=O)[C@H](CCCNC(=N)N)NC(=O)[C@@H]2CCCN2C(=O)[C@@H](NC(=O)CC[C@H](NC(=O)c2ccc(N(C)Cc3cnc4nc(N)nc(N)c4n3)cc2)C(=O)O)C(C)(C)SSC[C@@H](C(=O)O)NC(=O)CNC(=O)[C@H]([C@@H](C)O)NC(=O)[C@H](C(C)C)NC1=O` ({DAMPA-γGlu}-[Pen]PRGGSVLVTGC-OH; disulfide 1-12): the half-life was 43.8 min in data set [3], 770 min in data set [4] and 38.1 min in data set [5].

The Ki is a dissociation constant, usually derived from enzyme kinetics or from competition with a known ligand. What is called half-life is the time in which the quantity being followed falls by half.
